Measurements as given in patent US8030354B2, “Substituted biphenyl GPR40 modulators” (Amgen Inc., priority 2007, dated 2011).

Biological target: GPR40 (Homo sapiens, UniProt O14842)
Assay: Cell-based aequorin assay (CHO cells stably expressing GPR40 and aequorin)
Set-up: expressed in transfected cells; host or cells: CHO cells stably transfected with GPR40 and aequorin
Settings: activation of human GPR40, CHO cells, 0.01% HSA
Procedure, shortened: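 CHO cells stably co-expressing GPR40 and aequorin, loaded with coelenterazine (1 ug/mL, 2 h, room temperature) in H/HBSS with 20 mM Hepes and 0.01% fatty acid-free HSA. Serially diluted compounds added; luminescence recorded over 20 s. EC50 from dose-response of maximum relative light units.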

Sequence of GPR40 (O14842 whole entry): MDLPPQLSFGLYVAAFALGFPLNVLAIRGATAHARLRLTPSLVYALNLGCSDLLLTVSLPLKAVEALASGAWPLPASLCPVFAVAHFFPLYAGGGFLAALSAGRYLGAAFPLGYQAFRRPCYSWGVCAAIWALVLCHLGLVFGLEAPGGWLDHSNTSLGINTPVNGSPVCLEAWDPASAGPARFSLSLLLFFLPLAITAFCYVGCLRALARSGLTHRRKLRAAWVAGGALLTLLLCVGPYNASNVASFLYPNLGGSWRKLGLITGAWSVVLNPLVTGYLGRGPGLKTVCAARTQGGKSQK

| Structure (SMILES) | EC50 [µM] |
| --- | --- |
| COc1ccc(F)c(-c2ccc(COc3cccc(C(CC(=O)O)CC4CC4)c3)cc2CN2[C@H](C)CC[C@H]2C)c1 (single isomer, unassigned) [Example 69.47, (3R)-4-Cyclopropyl-3-(3-(((2-(((2R,5R)-2,5-dimethyl-1-pyrrolidinyl)methyl)-2′-fluoro-5′-(methyloxy)-1,1′-biphenyl-4-yl)methyl)oxy)phenyl)butanoic acid or (3S)-4-cyclopropyl-3-(3-(((2-(((2R,5R)-2,5-dimethyl-1-pyrrolidinyl)methyl)-2′-fluoro-5′-(methyloxy)-1,1′-biphenyl-4-yl)methyl)oxy)phenyl)butanoic acid] | 0.1 to 1 |
| COc1ccc(F)c(-c2ccc(COc3cccc(C(CC(=O)O)CC4CC4)c3)cc2CN2CCCCCC2)c1 (single isomer, unassigned) [Example 69.48, (3R)-3-(3-(((2-(1-Azepanylmethyl)-2′-fluoro-5′-(methyloxy)-1,1′-biphenyl-4-yl)methyl)oxy)phenyl)-4-cyclopropylbutanoic acid or (3S)-3-(3-(((2-(1-azepanylmethyl)-2′-fluoro-5′-(methyloxy)-1,1′-biphenyl-4-yl)methyl)oxy)phenyl)-4-cyclopropylbutanoic acid] | 1 to 10 |
| CCCCC(CC(=O)O)c1cccc(OCc2ccc(-c3cc(OC)ccc3F)c(C(C)(C)C)c2)c1 (single isomer, unassigned) [Example 71.1, (3R)-3-(3-(((2-(1,1-Dimethylethyl)-2′-fluoro-5′-(methyloxy)-1,1′-biphenyl-4-yl)methyl)oxy)phenyl)heptanoic acid or (3S-3-(3-(((2-(1,1-dimethylethyl)-2′-fluoro-5′-(methyloxy)-1,1′-biphenyl-4-yl)methyl)oxy)phenyl)heptanoic acid] | 0.1 to 1 |
| COC[C@H](CC(=O)O)c1cccc(OCc2ccc(-c3cc(OC)ccc3F)c(C3=CCCC3(C)C)c2)c1 (single isomer, unassigned) [Example 74, (3R)-3-(3-(((2-(5,5-Dimethyl-1-cyclopenten-1-yl)-2′-fluoro-5′-(methyloxy)-1,1′-biphenyl-4-yl)methyl)oxy)phenyl)-4-(methyloxy)butanoic acid or (3S)-3-(3-(((2-(5,5-dimethyl-1-cyclopenten-1-yl)-2′-fluoro-5′-(methyloxy)-1,1′-biphenyl-4-yl)methyl)oxy)phenyl)-4-(methyloxy)butanoic acid] | 1 to 10 |
| CCC=C[C@H](CC(=O)O)c1cccc(OCc2ccc(-c3cc(OC)ccc3F)c(C(C)(C)C)c2)c1 (single isomer, unassigned) [Example 75, (3S)-3-(3-(((2-(1,1-Dimethylethyl)-2′-fluoro-5′-(methyloxy)-1,1′-biphenyl-4-yl)methyl)oxy)phenyl)-4-heptenoic acid or (3R)-3-(3-(((2-(1,1-dimethylethyl)-2′-fluoro-5′-(methyloxy)-1,1′-biphenyl-4-yl)methyl)oxy)phenyl)-4-heptenoic acid] | 0.1 to 1 |
| CCC(CC(=O)O)c1cc(OCc2ccc(-c3cc(OC)ccc3F)c(C(C)(C)C)c2)ccc1F (single isomer, unassigned) [Example 76.2, (3R)-3-(5-(((2-(1,1-Dimethylethyl)-2′-fluoro-5′-(methyloxy)-1,1′-biphenyl-4-yl)methyl)oxy)-2-fluorophenyl)pentanoic acid or (3S)-3-(5-(((2-(1,1-dimethylethyl)-2′-fluoro-5′-(methyloxy)-1,1′-biphenyl-4-yl)methyl)oxy)-2-fluorophenyl)pentanoic acid] | 1 to 10 |
| CC[C@H](CC(=O)O)c1cccc(OCc2ccc(-c3cc(OC)ncc3F)c(C3(COC)CCCC3)c2)c1F (single isomer, unassigned) [Example 77.12, (3R)-3-(3-(4-(5-Fluoro-2-methoxypyridin-4-yl)-3-(1-(methoxymethyl)cyclopentyl)benzyloxy)-2-fluorophenyl)pentanoic acid or (3S)-3-(3-(4-(5-fluoro-2-methoxypyridin-4-yl)-3-(1-(methoxymethyl)cyclopentyl)benzyloxy)-2-fluorophenyl)pentanoic acid] | 1 to 10 |
| CCC(CC(=O)O)c1cccc(OCc2ccc(-c3cc(OC)ccc3F)c(C3CCCC3(C)C)c2)c1 (single isomer, unassigned) [Example 78.3] | 0.1 to 1 |
| CC[C@H](CC(=O)O)c1cccc(OCc2ccc(-c3cccc(OC)c3)c([C@@H]3CCCC3(C)C)c2)c1 (single isomer, unassigned) [Example 78.5] | 0.1 to 1 |
| CCOCc1cc(COc2cccc(C(CC)CC(=O)O)c2)ccc1-c1cc(OC)ccc1F (single isomer, unassigned) [Example 78.12, (3R)-3-(3-(((2-((Ethyloxy)methyl)-2′-fluoro-5′-(methyloxy)-1,1′-biphenyl-4-yl)methyl)oxy)phenyl)pentanoic acid or (3S)-3-(3-(((2-((ethyloxy)methyl)-2′-fluoro-5′-(methyloxy)-1,1′-biphenyl-4-yl)methyl)oxy)phenyl)pentanoic acid] | 1 to 10 |
| C=CC(C)(C)C(OC)c1cc(COc2cccc(C(CC)CC(=O)O)c2)ccc1-c1cc(OC)ccc1F (single isomer, unassigned) [Example 78.13] | 1 to 10 |
| COc1cccc(-c2ccc(COc3cccc(C(CC(=O)O)C4CCC4)c3)cc2C2CCCC2(C)C)c1 (single isomer, unassigned) [Example 79.5] | 0.1 to 1 |
| CCCC(CC(=O)O)c1cccc(OCc2ccc(-c3cccc(OC)c3)c(C3CCCCCC3)c2)c1 (single isomer, unassigned) [Example 80.1, (3R)-3-(3-(((2-Cycloheptyl-3′-(methyloxy)-1,1′-biphenyl-4-yl)methyl)oxy)phenyl)hexanoic acid or (3S)-3-(3-(((2-cycloheptyl-3′-(methyloxy)-1,1′-biphenyl-4-yl)methyl)oxy)phenyl)hexanoic acid] | 0.1 to 1 |
| CCCC(CC(=O)O)c1cccc(OCc2ccc(-c3cc(OC)ccc3F)c(C3CCCC3(C)C)c2)c1 (single isomer, unassigned) [Example 80.3] | 0.1 to 1 |
| CCCC(CC(=O)O)c1cccc(OCc2ccc(-c3cccc(OC)c3)c(C3CCCC3(C)C)c2)c1 (single isomer, unassigned) [Example 80.5] | 0.1 to 1 |
| CC1(C)CCC[C@H]1c1cc(COc2cccc([C@H](CC(=O)O)C3CC3)c2F)ccc1-c1cc(C(F)F)ccc1F (single isomer, unassigned) [Example 83.13] | 1 to 10 |
| COc1ccc(F)c(-c2ccc(COc3cccc(C(CC(=O)O)C4CC4)c3F)cc2C2CCCC2(C)C)c1 (single isomer, unassigned) [Example 83.17] | 0.1 to 1 |
| COc1ccc(F)c(-c2ccc(COc3cccc([C@@H](CC(=O)O)C4CC4)c3F)cc2[C@H](O)C2(C)CC2)c1 (single isomer, unassigned) [Example 83.18] | 1 to 10 |
| COc1ccc(F)c(-c2ccc(COc3cccc([C@H](CC(=O)O)C4CC4)c3F)cc2[C@H](O)C2(C)CC2)c1 (single isomer, unassigned) [Example 83.19] | 1 to 10 |
| CC1(C)CCC[C@@H]1c1cc(COc2cccc([C@@H](CC(=O)O)C3CC3)c2F)ccc1-c1ccccc1F (single isomer, unassigned) [Example 83.23] | 0.1 to 1 |
